In paper PMC11234460, “In Silico Discovery of Stapled Peptide Inhibitor Targeting the Nur77‐PPARγ Interaction and Its Anti‐Breast‐Cancer Efficacy” (Advanced Science, 2024):
Where a SMILES comes first, the peptide text is derived from it. Bridges are numbered along the chain shown (N, C = ends). [ ]: non-standard residue; d: D form. S5 = C=CCCC[C@](C)(N)C(=O)O

What was measured:
MDA-BoM-1833 cells = experiment: Cell viability assay (CCK-8); format: cell-based; conditions: MDA-BoM-1833, 5 × 10^−6 M, 24 h
Method: MCF7, MDA‐MB‐231, and MDA‐BoM‐1833 cells (5000 cells/well) were seeded in 96‐well plates and cultured overnight at 37°C and 5% CO2. The cells were then treated with fresh basic medium containing various concentrations (1/2/5/10/20 × 10^−6 M) of compounds. After 24 h of incubation, the cells were incubated with a basic medium containing 10% Cell Counting Kit‐8 (Dojindo, CK‐04) for 2 h. Cell viability was evaluated by measuring the absorbance at 450 nm. The formula used was [(As‐Ab)/(Ac‐Ab)] × 100%, where as represents the absorbance of the drug‐treated group, Ac represents the absorbance of the control group treated with medium, and Ab represents the absorbance of the blank control containing only medium.

MCF7 cells = experiment: Long-chain fatty acid uptake assay (BODIPY FL C16); format: cell-based, human; conditions: 24 h, BODIPY FL C16 1 h
Method: 5×10^4 MCF7 cells were seeded in confocal dishes and cultured overnight at 37 °C and 5% CO2. The cells were then incubated with a basic DMEM medium containing various concentrations of peptides (1/2/5/10/20 × 10^−6 M for flow cytometry and 10 × 10^−6 M for immunofluorescence) for 24 h. Afterward, 1 µL BODIPY FL C16 (1 × 10^−6 M, Thermo Fisher, D3821) was added to the confocal dishes and incubated with the cells for 1 h. Following incubation, the cell nuclei were stained with Hoechst for 8 min. Uptake of FA was monitored using flow cytometry (CytoFLEX, Beckman Coulter, USA) and DeltaVision OMX (GE, USA).

MDA-MB-231 cells = experiment: Energy metabolism analysis (Seahorse OCR); format: cell-based; conditions: MDA-MB-231, 24 h treatment, n = 3
Method: Cell energy metabolism analysis was conducted using a Seahorse cell energy metabolism analyzer (Agilent, USA). In brief, 8000 cells were seeded per well in a 96‐well XF96 plate (Agilent, 103794‐100) and cultured overnight. Subsequently, the cells were treated with various concentrations of peptides for 24 h. To prepare for metabolic stress injections, cartridge plates (Agilent, w15023) were hydrated with H2O for at least 12 h at 37 °C before the assay. 1 h before detection, the medium in each well was replaced with 180 µL XF calibrant solution (Agilent, 100840‐000), Afterward, the cell plate was replaced with 180 µL XF DMEM (Agilent, 103575‐100) with glucose (1 × 10^−2 M) (Agilent, 103577‐100), pyruvate (1 × 10^−3 M) (Agilent, 103578‐100) and glutamine (2 × 10^−3 M) (Agilent, 103579‐100) and the mixture was incubated in a CO2‐free incubator at 37 °C for 1 h. Then, 20 µL basic medium, 22 µL 1.5 × 10^−4 M oligomycin, 25 µL 1.5 × 10^−4 M FCCP, and 27 µL 5 × 10^−5 M ROT/AA (Agilent, 10315‐100) were added to wells A, B, C, and D, respectively, of the cartridge plates. The assay was carried out according to the manufacturer's instructions, and the OCR was reported in picomoles per min. The results were normalized to the cell number determined by the CCK‐8 assay.

[1] = system: MDA-MB-231-GFP tumor tissue; experiment: Transcriptome analysis of xenograft tumor tissue; format: in vivo, mouse; conditions: 10 mg group
Method: To establish the bone metastasis tumor model, 1×10^5 cells were injected into the left ventricle of each mouse (7–8 weeks old), and surgery was monitored using a cardiac ultrasound instrument. The mice were randomly divided into three groups and treated with PBS (control group, n = 6), 5 mg kg^−1 ST‐CY14 (n = 6), and 10 mg kg^−1 ST‐CY14 (n = 6) Tumor cell metastasis was monitored using an in vivo imaging instrument (IVIS Spectrum, PerkinElmer, USA). by intraperitoneal injection of 20 mg kg^−1 D‐luciferin. The mice were treated with ST‐CY14 via intravenous injection using a 100 µL PBS solution every 2 days starting on the designated day after tumor cell injection. Bone tissue with MDA‐BoM‐1833 cell metastasis was obtained and stained for TRAP. The mice sera were collected and analyzed for BSP and β‐CTx levels using ELISA (Lengton, BPE10823, BPE10438). For the orthotopic xenograft tumor model, 3×10^6 cells were injected into the fourth pair of breast pads on the left side of the mouse (4–5 weeks old). The mice were treated with ST‐CY14 every two days once the tumor volume reached 30–50 mm^3, with the same groups as in the bone metastasis tumor model. The tumors were collected and stained for H&E, Ki‐67, and TUNEL assays, which were conducted by Wuhan Servicebio Technology Co., Ltd. Major organs (heart, liver, spleen, lung, and kidney) were also collected for H&E analysis by Wuhan Servicebio Technology Co., Ltd. The Transcriptome and LC/MS targeted lipid metabolome were sequenced by OE Biotech, Inc., Shanghai, China. To evaluate the efficacy of Csn‐B in inhibiting breast cancer bone metastasis, an animal model was established as described above. The mice were randomly divided into three groups and treated with PBS (control group, n = 6), 10 mg kg^−1 ST‐CY14 (n = 6) in 100 µL PBS solution, and 5 mg kg^−1 ST‐CY14 (n = 6) in a 100 µL mixed solution (5% DMSO, 20% PEG 400, 5% Tween 80, and 70% normal saline) via intravenous injection every 2 days starting on the designated day after tumor cell injection.

For C[C@@H](O)[C@@H]1NC(=O)[C@H](CCCNC(=N)N)NC(=O)[C@H](CCCNC(=N)N)NC(=O)[C@@](C)(NC(=O)[C@H](Cc2ccccc2)NC(=O)CNC(=O)[C@H](CCCCN)NC(=O)[C@H](CS)NC(=O)CNC(=O)[C@H](CCC(=O)O)NC(=O)[C@@H](N)CS)CCCC=CCCC[C@@](C)(C(=O)N[C@@H](CCCNC(=N)N)C(=O)N[C@@H](Cc2ccc(O)cc2)C(=O)N[C@@H](Cc2ccc(O)cc2)C(=O)NCC(=O)N[C@@H](CCCNC(=N)N)C(=O)N[C@@H](CCCCN)C(=O)N[C@@H](CCCCN)C(=O)N[C@@H](CCCNC(=N)N)C(=O)N[C@@H](CCCNC(=N)N)C(=O)N[C@@H](CCC(N)=O)C(=O)N[C@@H](CCCNC(=N)N)C(=O)N[C@@H](CCCNC(=N)N)C(=O)N[C@@H](CCCNC(=N)N)C(N)=O)NC1=O [ST-CY14] (H-CEGCKGF[S5]RRT[S5]RYYGRKKRRQRRR-NH2; staple 8-12), which “Cell viability / proliferation” value (MDA-BoM-1833 cells) is on record?
The value was “significantly attenuated breast tumor cell proliferation”.

And the “FA uptake (flow cytometry)” value (MCF7 cells; MCF7, 1-20 × 10^−6 M)?
Its value is “dose‐dependent decrease in FA levels”.

What about the “FA uptake (immunofluorescence)” value (MCF7 cells; MCF7, 1 × 10^−5 M) of the same compound?
Its value is “inhibited FA uptake”.

And the “Oxygen consumption rate (OCR)” value (MDA-MB-231 cells)?
Its value is “significantly reduced”.

And the “AGT expression in tumor tissue (transcriptome)” value (from here on “AGT expression in tumor tissue”) ([1]; sample 1)?
Its value is 0.07902.

What about the “ANGPTL4 expression in tumor tissue (transcriptome)” value (shortened to “ANGPTL4 expression in tumor tissue”) ([1]; sample 1) of the same compound?
The value was 3.636.

What about the “CD36 expression in tumor tissue (transcriptome)” value (“CD36 expression in tumor tissue” below) ([1]; sample 1) of the same compound?
The value was 0.

What about the “CD74 expression in tumor tissue (transcriptome)” value (shortened to “CD74 expression in tumor tissue”) ([1]; sample 1) of the same compound?
The value was 0.3461.

What about the “CNR1 expression in tumor tissue (transcriptome)” value (“CNR1 expression in tumor tissue” for short) ([1]; sample 1) of the same compound?
Its value is 0.02158.

And the “CYP3A5 expression in tumor tissue (transcriptome)” value (“CYP3A5 expression in tumor tissue” below) ([1]; sample 1)?
The value was 0.3686.

And the “FABP4 expression in tumor tissue (transcriptome)” value (“FABP4 expression in tumor tissue” for short) ([1]; sample 1)?
Its value is 0.03159.

And the “INSL5 expression in tumor tissue (transcriptome)” value (“INSL5 expression in tumor tissue” for short) ([1]; sample 1)?
Its value is 0.

And the “ITGAL expression in tumor tissue (transcriptome)” value (“ITGAL expression in tumor tissue” for short) ([1]; sample 1)?
Its value is 0.005294.

And the “OAS1 expression in tumor tissue (transcriptome)” value (“OAS1 expression in tumor tissue” for short) ([1]; sample 1)?
The value was 0.1526.

And the “OLAH expression in tumor tissue (transcriptome)” value (“OLAH expression in tumor tissue” below) ([1]; sample 1)?
The value was 0.7465.

And the “PLIN1 expression in tumor tissue (transcriptome)” value (shortened to “PLIN1 expression in tumor tissue”) ([1]; sample 1)?
The value was 0.1271.

What about the “POLR2J3 expression in tumor tissue (transcriptome)” value (from here on “POLR2J3 expression in tumor tissue”) ([1]; sample 1) of the same compound?
Its value is 0.1542.

What about the “PTPRC expression in tumor tissue (transcriptome)” value (shortened to “PTPRC expression in tumor tissue”) ([1]; sample 1) of the same compound?
Its value is 0.09088.

And the “PYY expression in tumor tissue (transcriptome)” value (from here on “PYY expression in tumor tissue”) ([1]; sample 1)?
The value was 0.3061.

What about the “RNF152 expression in tumor tissue (transcriptome)” value (shortened to “RNF152 expression in tumor tissue”) ([1]; sample 1) of the same compound?
Its value is 0.2243.

And the “SLX1B expression in tumor tissue (transcriptome)” value (shortened to “SLX1B expression in tumor tissue”) ([1]; sample 1)?
Its value is 0.4199.

And the “UTS2B expression in tumor tissue (transcriptome)” value (from here on “UTS2B expression in tumor tissue”) ([1]; sample 1)?
The value was 0.2634.

What about the “VAMP7 expression in tumor tissue (transcriptome)” value (“VAMP7 expression in tumor tissue” for short) ([1]; sample 1) of the same compound?
The value was 0.394.

What about the “ZNF404 expression in tumor tissue (transcriptome)” value (“ZNF404 expression in tumor tissue” for short) ([1]; sample 1) of the same compound?
Its value is 0.5136.

And the “ZNF429 expression in tumor tissue (transcriptome)” value (from here on “ZNF429 expression in tumor tissue”) ([1]; sample 1)?
The value was 0.01399.

And the “AGT expression in tumor tissue” value ([1]; sample 2)?
The value was 0.282.

And the “ANGPTL4 expression in tumor tissue” value ([1]; sample 2)?
Its value is 6.216.

And the “CD36 expression in tumor tissue” value ([1]; sample 2)?
The value was 0.00582.

What about the “CD74 expression in tumor tissue” value ([1]; sample 2) of the same compound?
Its value is 0.2008.

And the “CNR1 expression in tumor tissue” value ([1]; sample 2)?
Its value is 0.02567.

What about the “CYP3A5 expression in tumor tissue” value ([1]; sample 2) of the same compound?
The value was 0.2054.

And the “FABP4 expression in tumor tissue” value ([1]; sample 2)?
Its value is 0.

And the “INSL5 expression in tumor tissue” value ([1]; sample 2)?
Its value is 1.442.

What about the “ITGAL expression in tumor tissue” value ([1]; sample 2) of the same compound?
The value was 0.

What about the “OAS1 expression in tumor tissue” value ([1]; sample 2) of the same compound?
The value was 0.4448.

What about the “OLAH expression in tumor tissue” value ([1]; sample 2) of the same compound?
The value was 0.9577.

What about the “PLIN1 expression in tumor tissue” value ([1]; sample 2) of the same compound?
Its value is 0.01163.

What about the “POLR2J3 expression in tumor tissue” value ([1]; sample 2) of the same compound?
Its value is 0.3872.

And the “PTPRC expression in tumor tissue” value ([1]; sample 2)?
Its value is 0.01081.

And the “PYY expression in tumor tissue” value ([1]; sample 2)?
The value was 1.722.

And the “RNF152 expression in tumor tissue” value ([1]; sample 2)?
The value was 0.1875.

What about the “SLX1B expression in tumor tissue” value ([1]; sample 2) of the same compound?
Its value is 0.5583.

And the “UTS2B expression in tumor tissue” value ([1]; sample 2)?
The value was 0.2673.

And the “VAMP7 expression in tumor tissue” value ([1]; sample 2)?
The value was 0.4688.

And the “ZNF404 expression in tumor tissue” value ([1]; sample 2)?
Its value is 0.685.

What about the “ZNF429 expression in tumor tissue” value ([1]; sample 2) of the same compound?
Its value is 0.06657.

And the “AGT expression in tumor tissue” value ([1]; sample 3)?
The value was 0.02516.

And the “ANGPTL4 expression in tumor tissue” value ([1]; sample 3)?
The value was 3.683.

And the “CD36 expression in tumor tissue” value ([1]; sample 3)?
Its value is 0.004672.

And the “CD74 expression in tumor tissue” value ([1]; sample 3)?
Its value is 0.1451.

What about the “CNR1 expression in tumor tissue” value ([1]; sample 3) of the same compound?
Its value is 0.07831.

What about the “CYP3A5 expression in tumor tissue” value ([1]; sample 3) of the same compound?
The value was 0.312.

And the “FABP4 expression in tumor tissue” value ([1]; sample 3)?
The value was 0.06034.

And the “INSL5 expression in tumor tissue” value ([1]; sample 3)?
Its value is 0.1867.

And the “ITGAL expression in tumor tissue” value ([1]; sample 3)?
Its value is 0.

And the “OAS1 expression in tumor tissue” value ([1]; sample 3)?
The value was 0.2478.

What about the “OLAH expression in tumor tissue” value ([1]; sample 3) of the same compound?
The value was 1.048.

And the “PLIN1 expression in tumor tissue” value ([1]; sample 3)?
Its value is 0.

What about the “POLR2J3 expression in tumor tissue” value ([1]; sample 3) of the same compound?
The value was 0.1963.

And the “PTPRC expression in tumor tissue” value ([1]; sample 3)?
The value was 0.04774.

And the “PYY expression in tumor tissue” value ([1]; sample 3)?
The value was 0.5582.

What about the “RNF152 expression in tumor tissue” value ([1]; sample 3) of the same compound?
Its value is 0.2258.

What about the “SLX1B expression in tumor tissue” value ([1]; sample 3) of the same compound?
The value was 0.5662.

And the “UTS2B expression in tumor tissue” value ([1]; sample 3)?
The value was 0.1702.

What about the “VAMP7 expression in tumor tissue” value ([1]; sample 3) of the same compound?
Its value is 0.3548.

And the “ZNF404 expression in tumor tissue” value ([1]; sample 3)?
The value was 0.3567.

What about the “ZNF429 expression in tumor tissue” value ([1]; sample 3) of the same compound?
Its value is 0.0501.
